Source: US12043827B2, “Compositions, systems, and methods for base diversification” (Pairwise Plants Services, Inc., priority 2020, dated 2024)

Experiments:
Assay type in all cases: cell-based
endogenous loci = test: Transversion mutations from adenine: ABE7.10 with inosine glycosylases (fusion or in trans), HTS in HEK293T cells; details: all conditions that used ABE7.10, 3 days
Excerpt: The experiment was designed to generate transversion mutations from adenines by promoting inosines to undergo the same cellular DNA repair pathways that generate transversion mutations during translesion-bypass polymerization in cytosine base editing. While not wishing to be bound to any particular theory, it was hypothesized that the key step was to facilitate the glycosylation of inosines generated during adenine base editing. It was hypothesized that once glycosylated, the resulting abasic site can be a substrate for translesion-bypass repair and that this would lead to transversion mutations. Exogenous inosine glycosylases were provided along with ABE to promote inosine glycosylation.
Several inosine glycosylases were screened in HEK293T cells and it was determined whether they were capable of acting on inosines generated by ABE. If inosine is converted into an abasic site, and subsequently repaired through translesion-bypass polymerization, transversion mutations can be generated from adenines.
Five different glycosylases from various species were selected for testing. The following genes were codon-optimized and cloned into a mammalian expression vector, either as unfused gene, or as a C-terminal fusion to ABE7.10 (species source in parenthesis); hMPG (Homo sapiens) having an amino acid sequence of SEQ ID NO:84, mMPG (Mus musculus) having an amino acid sequence of SEQ ID NO:83, rMPG (Rattus norvegicus) having an amino acid sequence of SEQ ID NO:80, SpThp1 (Schizosaccharomyces pombe) having an amino acid sequence of SEQ ID NO:79, MaHDG (Methanosarcina acetivorans) having an amino acid sequence of SEQ ID NO:81, and MbHDG (Methanosarcina barkeri) having an amino acid sequence of SEQ ID NO:82. […] The HEK293T cells were transfected with a plasmid encoding gRNA targeting endogenous loci and either the fusion plasmid or a mixture of plasmids expressing ABE7.10 and the above inosine glycosylases. After 3 days, high-throughput sequencing was used to determine the editing result of targeted adenines. Mock transfection (using pUC19) was used to set baseline editing. All conditions that used ABE7.10 generated 10-20% guanine transition, as expected.

HEK2 genomic site = test: Adenine base editing with inosine glycosylases, HEK2 site (FIGS. 7A-7C); details: all conditions that used ABE
Excerpt: FIGS. 7A-7C are graphs showing adenine base editing results for a HEK2 genomic site. Adenines in the target window were diversified into cytosine and thymine. All conditions that used ABE generated ˜10-20% guanine mutation, as expected. FIG. 7A is a graph providing the results for inosine glycosylase fusion constructs. FIG. 7B is a graph providing the results for inosine glycosylases provided in trans and overexpressed in the cell. FIG. 7C is a graph showing the amount of indels generated by the constructs.
(§1) Five different glycosylases from various species were selected for testing. The following genes were codon-optimized and cloned into a mammalian expression vector, either as unfused gene, or as a C-terminal fusion to ABE7.10 (species source in parenthesis); hMPG (Homo sapiens) having an amino acid sequence of SEQ ID NO:84, mMPG (Mus musculus) having an amino acid sequence of SEQ ID NO:83, rMPG (Rattus norvegicus) having an amino acid sequence of SEQ ID NO:80, SpThp1 (Schizosaccharomyces pombe) having an amino acid sequence of SEQ ID NO:79, MaHDG (Methanosarcina acetivorans) having an amino acid sequence of SEQ ID NO:81, and MbHDG (Methanosarcina barkeri) having an amino acid sequence of SEQ ID NO:82. […]

FANCF genomic site = test: Adenine base editing with inosine glycosylases, FANCF site (FIGS. 8A-8C); details: all conditions that used ABE
Excerpt: FIGS. 8A-8C are graphs showing adenine base editing results for a FANCF genomic site. Adenines in the target window were diversified into cytosine and thymine. All conditions that used ABE generated ˜10-20% guanine mutation, as expected. FIG. 8A is a graph providing the results for inosine glycosylase for fusion constructs. FIG. 8B is a graph providing the results for inosine glycosylases provided in trans and overexpressed in the cell. […] is a graph showing the amount of indels generated by the constructs.
as §1

[1] = test system: spacer sequence corresponding to SEQ ID NO:131; test: SunTag recruitment system for adenine base diversifier / reduced Cas9 binding affinity, HTS in HEK293T cells; details: scFv-TadA8.20m-GB1 or scFv-TadA8e-GB1, glycosylase overexpressed in trans, FIGS. 10 and 11
Excerpt: Different forms of Cas9 were expressed in HEK293T cells, which were: nCas9(D10A) (SEQ ID NO:36), dCas9-SunTag (SEQ ID NO:135), nCas9(D10A)-SunTag (SEQ ID NO:136), and enCas9(D10A)-SunTag (SEQ ID NO:137), along with a SunTag-antibody-fused adenine deaminase, with a GB1 solubility tag at the C-terminus, having a sequence of SEQ ID NO:138 or SEQ ID NO:139. An inosine glycosylase, which was hMPG (SEQ ID NO:84), mMPG (SEQ ID NO:83), or SpThp1 (SEQ ID NO:79) was overexpressed in trans. The glycosylase was not actively recruited, but was expressed in the cell at the same time as the Cas9 and deaminase.
In an attempt to reduce the Cas9 DNA binding affinity to a target nucleic acid, Cas9 having mutated amino acid residues that may interact with the target nucleic acid were used. Without being limited to any particular theory, the thought was that this would facilitate the dissociation of Cas9 from the target nucleic acid once adenine is converted to inosine; thus, providing greater access for inosine glycosylase. Specifically, enCas9(D10A) (SEQ ID NO:39) contains two mutations that reduce DNA binding affinity compared to nCas9(D10A) (Halperin et al. Nature 2018 560(7717):248-252). The effect of the mutations in the context of SunTag-mediated adenine diversification were tested. […]
After three days, the editing efficiency was measured by high throughput sequencing of targeted loci. […]

[2] = test system: Sites 1-4 (SEQ ID NO:131-134); test: Truncation of inosine glycosylase regulatory domain, hMPG vs thMPG fusions to ABE8.20m; details: N- and C-terminus fusions to ABE8.20m, four sites, FIG. 12
Excerpt: Methylpurine glycosylase (MPG) usually contains two domains. The catalytic domain of MPG is necessary for excising inosine from DNA (Hollis, Lau, Ellenberger. Mutation Research 2000, 460, 201-210). Without being bound to any particular theory, in an effort to reduce the size of MPG, potentially allow for better inosine access to the catalytic domain, and potentially improve the solubility of the fusion complex, the N-terminus of MPG was truncated.
In this experiment, both N-terminus and C-terminus fusions of hMPG to ABE8.20m (SEQ ID NO:57) were tested with a truncated variant of hMPG (thMPG) (SEQ ID NO:85). Four different target nucleic acids were tested, which were: Site 1: […] (SEQ ID NO:131), Site 2: […] (SEQ ID NO:132), Site 3: […] (SEQ ID NO:133), and Site 4: […] (SEQ ID NO:134).

“ABE7.10: adenine base editor, unfused ABE7.10 having amino acid sequence of SEQ ID NO:55” was tested, and the “guanine transition of targeted adenines” value (endogenous loci) was 10-20%, the guanine mutation (HEK2 genomic site) was 10-20% and the guanine mutation (FANCF genomic site) was 10-20%.

For “nCas9(D10A)-SunTag: Cas9 nickase (D10A) fused to SunTag, SEQ ID NO:136”, the “A to C or T editing” value [1] was “increase in A to C or T editing compared to expression of nCas9(D10A) without SunTag”.

B1: thMPG: truncated variant of hMPG, SEQ ID NO:85, fused to ABE8.20m (protein, listed as Homo sapiens)
chain: KGHLTRLGLEFFDQPAVPLARAFLGQVLVRRLPNGTELRGRIVETEAYLGPEDEAAHSRGGRQTPRNRGMFMKPGTLYVYIIYGMYFCMNISSQGDGACVLLRALEPLEGLETMRQLRSTLRKGTASRVLKDRELCSGPSKLCQALAINKSFDQRDLAQDEAVWLERGPLEPSEPAVVAAARVGVGHAGEWARKPLRFYVRGSPWVSVVDRVAEQDTQA
For B1, the “adenine conversion to C or T activity, truncated vs full-length MPG” value [2] was “no observed decrease in activity and, in some cases, there was an observed increase in adenine conversion to C or T”.
